Activity coefficient data for five compounds are collected here from the NIST ThermoML archive (doi:10.1016/j.fluid.2014.05.023).

Where “and” joins values, the source holds several entries; their conditions need not be identical. Identical values can stand only once. Numbers after ± are expanded uncertainties.

The data set is described as follows: activity coefficient (dimensionless); of the first substance listed, at infinite dilution; xn = mol fraction of the nth substance listed. The conditions noted are these: 101 kPa, Liquid, Chromatography, x1 = 0.

Regarding `CCCCOC(C)=O` [butyl ethanoate] + O, the activity coefficient stood at 613 ± 42 (273.35 K); 799 ± 55 (283.15 K); 942 ± 65 (293.15 K); 1040 ± 72 (298.15 K); 1080 ± 75 (303.15 K); 1140 ± 79 (313.15 K). The activity coefficient (323.15 K) was determined as 1160 ± 80 and the activity coefficient (333.15 K) is 1140 ± 78.

Regarding `CCOC(C)=O` [ethyl acetate] + O, the activity coefficient (273.35 K) was 44.5 ± 3; the activity coefficient (283.15 K) worked out at 54.9 ± 3.8; the activity coefficient (293.15 K) was 64.8 and 68; the activity coefficient (298.15 K) stood at 69.2 ± 4.7; the activity coefficient (303.15 K) was 73.6 ± 5; the activity coefficient (313.15 K) turned out to be 80.1 ± 5.5.

`CCCC(=O)OCC` [ethyl butanoate] + O: the activity coefficient (293.15 K) came to 993 ± 68; the activity coefficient (303.15 K) was 1090 ± 75; the activity coefficient (313.15 K) amounted to 1150 ± 79; the activity coefficient (323.15 K) was found to be 1180 ± 81; the activity coefficient (333.15 K) stood at 1180 ± 81; the activity coefficient (341.15 K) amounted to 1110 ± 120. In addition, the activity coefficient (351.15 K) worked out at 1030 ± 110.

Turning to `CCOC(=O)CC` [ethyl propanoate] + O, the activity coefficient (293.15 K) was 252 ± 17; the activity coefficient (303.15 K) was found to be 291 ± 20; the activity coefficient (313.15 K) was found to be 312 ± 21; the activity coefficient (323.15 K) is 329 ± 23; the activity coefficient (333.15 K) stood at 343 ± 24; the activity coefficient (341.15 K) is 332 and 328. Moreover, the activity coefficient runs as follows: (351.15 K) 366 and 321; (361.25 K) 283 ± 57.

In the case of `CCCOC(C)=O` [propyl ethanoate] + O, the activity coefficient was 172 ± 12 (273.35 K); 217 ± 15 (283.15 K); 274 and 257 (293.15 K); 261 and 270 (298.15 K); 281 ± 19 (303.15 K); 302 ± 21 (313.15 K). Further, the activity coefficient turned out to be 319 ± 22 (323.15 K) and 321 ± 22 (333.15 K).
